Reference: patent US4327097A, “Novel penicillins” (Toyama Chemical Co., Ltd., priority 1974, dated 1982)
Converted amounts (≈) assume the structure as drawn.

Tests used:
[1] = tested on: β-lactamase, Pseudomonas aeruginosa GN 238; experiment: Resistant activity against β-lactamase, iodometric assay; format: biochemical; conditions: β-lactamase from Pseudomonas aeruginosa GN 238; Potassium Penicillin G = 100
Experimental: (3) Resistant activity against β-lactamase, Pseudomonas aerugionsa GN 238:
The resistant activity of each compound against β-lactamase was measured in the manner described below.
β-Lactamase was prepared from Pseudomonas aeruginosa GN 238. This microorganism was cultured in 100 ml of a medium containing 2 g of yeast extract, 10 g of polypeptone, 2 g of glucose, 7 g of disodium hydrogen phosphate, 2 g of potassium dihydrogen phosphate, 1.2 g of ammonium sulfate and 0.4 g of magnesium sulfate, per liter, in a 500-ml Erlenmeyer flask for 6 hrs. at 37° C. with shaking. The resulting cells were collected by centrifugation (5,000 r.p.m.×10 min.), washed three times with 0.1 M phosphate buffer (pH 7.0). Subsequently, the cells were subjected to sonication (20 KHz, 20 min.) and then centrifuged at 15,000 r.p.m. for 60 min. By using the supernatant of enzyme fluid, the resistance of each compound against β-lactamase was determined by the iodometric assay method. Each numeral shown in Table 7 is a relative activity value calculated by assuming as 100 the activity of the control Potassium Penicillin G.

Pseudomonas aeruginosa = experiment: MIC against clinical isolates; format: cell-based; conditions: unit assumed
Escherichia coli = experiment: MIC against clinical isolates; format: cell-based; conditions: Table 5-2, clinical isolate; unit assumed
Staphylococcus aureus = experiment: MIC against clinical isolates; format: cell-based; conditions: Table 5-1, clinical isolate; unit assumed
[2] = tested on: Pseudomonas aeruginosa I.F.O.; experiment: MIC, plate method, standard strains; format: cell-based; conditions: unit assumed; for MIC Pseudomonas aeruginosa I.F.O.: Table 4, standard strain
Experimental: (§1) The minimum inhibitory concentration (MIC) was determined by the plate method disclosed in "Chemotherapy" (Japan), Vol. 16, (1968), pages 98-99. The culture medium used was a Heart infusion agar (pH 7.4). The number of the cells per plate used in the inoculum was 10^4 (10^6 cells/ml).

Klebsiella pneumoniae [3] = experiment: MIC, plate method, standard strains; format: cell-based; conditions: unit assumed
Experimental: as §1

Escherichia coli NIHJ = experiment: MIC, plate method, standard strains; format: cell-based; conditions: unit assumed; for MIC Escherichia coli NIHJ: Table 4, standard strain
Experimental: as §1

Proteus vulgaris 3027 = experiment: MIC, plate method, standard strains; format: cell-based; conditions: unit assumed
Experimental: as §1

[4] = tested on: Staphylococcus aureus 209p; experiment: MIC, plate method, standard strains; format: cell-based; conditions: unit assumed
Experimental: as §1

Shigella sonnei = experiment: MIC against clinical isolates; format: cell-based; conditions: Table 5-5, clinical isolate; unit assumed
Experimental: as §1
(§2) MIC was determined in the same manner as in the preceding paragraph (1).

Shigella flexneri = experiment: MIC against clinical isolates; format: cell-based; conditions: Table 5-5, clinical isolate; unit assumed
Experimental: as §1, §2

Salmonella typhi-murium = experiment: MIC against clinical isolates; format: cell-based; conditions: Table 5-5, clinical isolate; unit assumed
Proteus vulgaris = experiment: MIC against clinical isolates; format: cell-based; conditions: Table 5-6, clinical isolate; unit assumed
Klebsiella pneumoniae [5] = experiment: MIC against clinical isolates; format: cell-based; conditions: Table 5-4, clinical isolate; unit assumed
[6] = molecular target: β-lactamase, Escherichia freundii GN 346 (Citrobacter freundii, UniProt Q46041); experiment: Resistant activity against β-lactamase, iodometric assay; format: biochemical; conditions: control Cephalorizine = 100
Experimental: (§3) (4) Resistant activity of each cephalosporin compound against β-lactamase, Proteus vulgaris GN 76 and Escherichia freundii GN 346:
(§4) The resistant activity of each cephalosporin compound against β-lactamase was measured in the manner described below.
(§5) β-lactamase was prepared from Proteus vulgaris GN 76 and Escherichia freundii GN 346. 10 ml of an overnight culture in Heart Infusion broth was diluted with 100 ml of a medium containing 2 g of yeast extract, 10 g of polypeptone, 2 g of glucose, 7 g of disodium hydrogen phosphate, 2 g of potassium dihydrogen phosphate, 1.2 g of ammonium sulfate and 0.4 g of magnesium sulfate, per liter, and incubated with shaking at 37° C. After incubation of 2 hrs, Penicillin G (50 μg/ml) was added as the inducer, and further incubated for 2 hrs. The resulting cells were collected by centrifugation (5,000 r.p.m.×10 min.) and washed two times with 0.1 M phosphate buffer (pH 7.0). Subsequently, the cells were subjected to sonication (20 KHz, 5 min.) and then centrifuged at 15,000 r.p.m. for 60 min. By using the supernatant of enzyme fluid, the stability of each compound against β-lactamase was determined by the iodometric assay method. Each numeral shown in Table 7-2 is a relative activity value calculated by assuming as 100 the activity of the control Cephalorizine.

[7] = molecular target: T1, β-lactamase, Proteus vulgaris GN 76 (Proteus vulgaris, UniProt P52664); experiment: as above; format: biochemical; conditions: control Cephalorizine = 100
T1 construct: By using the supernatant of enzyme fluid; endogenous in cells; host or cells: Proteus vulgaris GN 76 (penicillin G-induced cells, sonicated, 15,000 r.p.m. supernatant)
Experimental: as §3, §4, §5

Chain of β-lactamase, Escherichia freundii GN 346 (Q46041 entry or part of it): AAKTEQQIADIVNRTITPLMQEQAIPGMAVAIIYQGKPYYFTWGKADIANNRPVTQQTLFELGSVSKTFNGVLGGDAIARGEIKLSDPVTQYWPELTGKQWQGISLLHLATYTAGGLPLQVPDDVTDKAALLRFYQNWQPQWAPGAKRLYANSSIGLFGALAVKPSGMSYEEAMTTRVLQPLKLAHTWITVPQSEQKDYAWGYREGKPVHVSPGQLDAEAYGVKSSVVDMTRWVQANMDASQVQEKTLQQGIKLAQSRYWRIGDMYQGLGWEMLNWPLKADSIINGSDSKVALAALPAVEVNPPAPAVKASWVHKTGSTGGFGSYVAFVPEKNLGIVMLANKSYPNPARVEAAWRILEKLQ
T1 sequence (P52664 30-300): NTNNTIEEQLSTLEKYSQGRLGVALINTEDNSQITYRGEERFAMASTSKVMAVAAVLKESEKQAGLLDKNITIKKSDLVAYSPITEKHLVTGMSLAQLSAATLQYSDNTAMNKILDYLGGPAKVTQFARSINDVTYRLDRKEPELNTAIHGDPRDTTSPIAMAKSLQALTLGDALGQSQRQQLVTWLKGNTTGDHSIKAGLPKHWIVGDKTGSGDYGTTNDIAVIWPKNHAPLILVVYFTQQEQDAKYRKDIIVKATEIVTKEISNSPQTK

CN1CCN(C(=O)NC(C(=O)NC2C(=O)N3C2SC(C)(C)C3C(=O)O)c2ccccc2)C(=O)C1=O (single isomer, unassigned) [Compound 37]
Relative activity (%), resistant activity against β-lactamase [1]: 15% | MIC Pseudomonas aeruginosa GN (Pseudomonas aeruginosa; Table 5-3, clinical isolate, strain number not given): 50 µg/mL (≈ 99.3 µM) | MIC Pseudomonas aeruginosa GN 82 (Pseudomonas aeruginosa; Table 5-3, clinical isolate): 6.25 µg/mL (≈ 12.4 µM) | MIC Pseudomonas aeruginosa GN 163 (Pseudomonas aeruginosa; Table 5-3, clinical isolate): 12.5 µg/mL (≈ 24.8 µM) | MIC Pseudomonas aeruginosa GN 221 (Pseudomonas aeruginosa; Table 5-3, clinical isolate): 6.25 µg/mL (≈ 12.4 µM) | MIC Pseudomonas aeruginosa GN 376 (Pseudomonas aeruginosa; Table 5-3, clinical isolate): 12.5 µg/mL (≈ 24.8 µM) | MIC Pseudomonas aeruginosa GN 1035 (Pseudomonas aeruginosa; Table 5-3, clinical isolate): 50 µg/mL (≈ 99.3 µM) | MIC Pseudomonas aeruginosa GN 1091 (Pseudomonas aeruginosa; Table 5-3, clinical isolate): 12.5 µg/mL (≈ 24.8 µM) | MIC Pseudomonas neruginosa S-1 (Pseudomonas aeruginosa; Table 5-4, clinical isolate): 200 µg/mL (≈ 397 µM) | MIC Pseudomonas neruginosa S-3 (Pseudomonas aeruginosa; Table 5-4, clinical isolate): 50 µg/mL (≈ 99.3 µM) | MIC Pseudomonas neruginosa S-4 (Pseudomonas aeruginosa; Table 5-4, clinical isolate): 100 µg/mL (≈ 199 µM) | MIC Escherichia coli GN 3435 (Escherichia coli): 3.13 µg/mL (≈ 6.22 µM) | MIC Escherichia coli GN 3452 (Escherichia coli): 12.5 µg/mL (≈ 24.8 µM) | MIC Escherichia coli GN 3465 (Escherichia coli): 200 µg/mL (≈ 397 µM) | MIC Escherichia coli GN 3481 (Escherichia coli): 6.25 µg/mL (≈ 12.4 µM) | MIC Escherichia coli GN 3611 (Escherichia coli): > 200 µg/mL | MIC Escherichia coli K-1 (Escherichia coli): 12.5 µg/mL (≈ 24.8 µM) | MIC Escherichia coli K-2 (Escherichia coli): 6.25 µg/mL (≈ 12.4 µM) | MIC Escherichia coli K-3 (Escherichia coli): > 200 µg/mL | MIC Escherichia coli K-4 (Escherichia coli): 3.13 µg/mL (≈ 6.22 µM) | MIC Staphylococcus aureus F-1 (Staphylococcus aureus): 12.5 µg/mL (≈ 24.8 µM) | MIC Staphylococcus aureus F-3 (Staphylococcus aureus): 3.13 µg/mL (≈ 6.22 µM) | MIC Staphylococcus aureus F-4 (Staphylococcus aureus): 6.25 µg/mL (≈ 12.4 µM) | MIC Staphylococcus aureus F-5 (Staphylococcus aureus): > 200 µg/mL | MIC Staphylococcus aureus MS 8588 (Staphylococcus aureus): 3.13 µg/mL (≈ 6.22 µM) | MIC Staphylococcus aureus MS 8596 (Staphylococcus aureus): 3.13 µg/mL (≈ 6.22 µM) | MIC Staphylococcus aureus MS 8684 (Staphylococcus aureus): 3.13 µg/mL (≈ 6.22 µM) | MIC Staphylococcus aureus MS 8713 (Staphylococcus aureus): 12.5 µg/mL (≈ 24.8 µM) | MIC Pseudomonas aeruginosa I.F.C ([2]; Table 3, standard strain): 6.25 µg/mL (≈ 12.4 µM) | MIC Klebsiella pneumoniae (Klebsiella pneumoniae [3]; Table 3, standard strain): 6.25 µg/mL (≈ 12.4 µM) | MIC Esche--richin coil NIHJ (Escherichia coli NIHJ; Table 3, standard strain): < 1.57 µg/mL | MIC Proteus vulgaris 3027 (Proteus vulgaris 3027; Table 3, standard strain): < 1.57 µg/mL | MIC Staphylococcus aureus 209p ([4]; Table 3, standard strain, Heart infusion agar pH 7.4): < 1.57 µg/mL | MIC Shigella sonnei JS 11232 (Shigella sonnei): 100 µg/mL (≈ 199 µM) | MIC Shigella sonnei JS 11755 (Shigella sonnei): 6.25 µg/mL (≈ 12.4 µM) | MIC Shigella flexneri JS 11215 (Shigella flexneri): > 200 µg/mL | MIC Shigella flexneri JS 11839 (Shigella flexneri): 6.25 µg/mL (≈ 12.4 µM) | MIC Salmonella typhi-murium SL 2136 (Salmonella typhi-murium): > 200 µg/mL | MIC Proteus vulgaris (Proteus vulgaris): < 0.4 µg/mL | MIC Klebsiella pneumoniae GN 917 (Klebsiella pneumoniae [5]): 12.5 µg/mL (≈ 24.8 µM) | MIC Klebsiella pneumoniae GN 4081 (Klebsiella pneumoniae [5]): 200 µg/mL (≈ 397 µM) | MIC Klebsiella pneumoniae GN 4117 (Klebsiella pneumoniae [5]): 100 µg/mL (≈ 199 µM)

CN1CCN(C(=O)NC(C(=O)NC2C(=O)N3C(C(=O)O)=C(CSc4nnnn4C)CSC23)c2ccccc2)C(=O)C1=O (single isomer, unassigned) [Compound No. 63]
Relative activity (%) against β-lactamase, E. freundii GN 346 [6]: 0.2% | Relative activity (%) against β-lactamase, Pr. vulgaris GN 76 [7]: 6% | MIC Pseudomonas aeruginosa GN4 (Pseudomonas aeruginosa; Table 6-3, clinical isolate): 25 µg/mL (≈ 40.6 µM) | MIC Pseudomonas aeruginosa GN 82 (Pseudomonas aeruginosa; Table 6-3, clinical isolate): 50 µg/mL (≈ 81.2 µM) | MIC Pseudomonas aeruginosa GN 376 (Pseudomonas aeruginosa; Table 6-3, clinical isolate): 50 µg/mL (≈ 81.2 µM) | MIC Pseudomonas aeruginosa GN 2565 (Pseudomonas aeruginosa; Table 6-3, clinical isolate): 50 µg/mL (≈ 81.2 µM)

CCN1CCN(C(=O)NC(C(=O)NC2C(=O)N3C(C(=O)O)=C(CSc4nnc(C)s4)CSC23)c2ccc(O)cc2)C(=O)C1=O (single isomer, unassigned) [Compound No. 76]
Relative activity (%) against β-lactamase, E. freundii GN 346 [6]: 1% | Relative activity (%) against β-lactamase, Pr. vulgaris GN 76 [7]: 11% | MIC Pseudomonas aeruginosa I.F.O. [2]: 50 µg/mL (≈ 75.6 µM) | MIC Klebsiella pneumoniae (Klebsiella pneumoniae [3]; Table 4, standard strain): 0.79 µg/mL (≈ 1.19 µM) | MIC Escherichia coli NIHJ (Escherichia coli NIHJ): < 0.4 µg/mL | MIC Proteus vulgaris 3027 (Proteus vulgaris 3027; Table 4, standard strain): 3.13 µg/mL (≈ 4.73 µM) | MIC Staphylococcus aureus 209p ([4]; Table 4, standard strain): 1.57 µg/mL (≈ 2.37 µM)

CCN1CCN(C(=O)NC(C(=O)NC2C(=O)N3C(C(=O)O)=C(COC(C)=O)CSC23)c2ccc(O)cc2)C(=O)C1=O (single isomer, unassigned) [Compound No. 81]
Relative activity (%) against β-lactamase, E. freundii GN 346 [6]: 0.4% | Relative activity (%) against β-lactamase, Pr. vulgaris GN 76 [7]: 6% | MIC Pseudomonas aeruginosa I.F.O. [2]: 12.5 µg/mL (≈ 21.2 µM) | MIC Klebsiella pneumoniae (Klebsiella pneumoniae [3]; Table 4, standard strain): < 1.57 µg/mL | MIC Escherichia coli NIHJ (Escherichia coli NIHJ): < 1.57 µg/mL | MIC Proteus vulgaris 3027 (Proteus vulgaris 3027; Table 4, standard strain): < 1.57 µg/mL | MIC Staphylococcus aureus 209p ([4]; Table 4, standard strain): < 1.57 µg/mL
